Experimental data reported in patent publication US20240245677A1, “SELECTED COMPOUNDS FOR TARGETED DEGRADATION OF BRD9” (C4 THERAPEUTICS, INC., priority 2021, published 2024).
“And” between values parts separate entries of the source, which are not always exact repeats. Equal values may be shown once. Read-outs that look alike come from different tables or passages of the source.

Assays:
CRBN-DDB1 = target: T1, CRBN-DDB1 (Homo sapiens, UniProt Q96SW2); assay: Fluorescence polarization competition binding assay, CRBN-DDB1; conditions: FP competition
T1 construct: His; purchased Wuxi Biortus Biosciences Co., Ltd
Description: Fluorescence polarization (FP) competition experiments were used to determine the binding affinity of Compound 1 to purified CRBN-DDB1 protein.
Human Histidine (His) CRBN and non-tag DDB1 (CRBN-DDB1 (5.64 mg/mL in 25 mM HEPES, 300 mM NaCl, 1 mM TCEP, pH 7.5)) was purchased from Wuxi Biortus Biosciences Co., Ltd. (Jiangsu, China) and stored at −80° C. until use. Potent CRBN-DDB1 ligand was chemically labeled with the commercially available fluorophore Alexa Fluor™ 647 (Invitrogen, Waltham, MA, USA) following manufacturer's instructions. Fluorescently labelled CRBN-DDB1 binding compound at 0.3 mM in DMSO was stored at −20° C.
The determination of the binding constant (Kd) of Compound 1 to CRBN-DDB1 was carried out using an established, sensitive and quantitative in vitro fluorescence polarization (FP) binding assay (Nasir & Jolley, 1999). […]
A 20 μL mixture containing 150 nM CRBN-DDB1 and 5 nM probe dye in 50 mM HEPES, pH 7.4, 200 mM NaCl, 1 mM TCEP and 0.05% Pluronic Acid F-127 was added to wells containing compound and incubated at room temperature for 1.5 hours. […] Matching control plates excluding CRBN-DDB1 were used to correct for background fluorescence (Shapiro et al., 2009). Plates were read on an EnVision® multimode plate reader (Catalog No. 2104-0010, Perkin Elmer Inc., Dumfries, VA, USA) with Cy5 polarization filters and mirror. […]

IKZF1 = target: T2, IKZF1 (Homo sapiens, UniProt Q13422+Q96SW2); assay: IKZF1 HiBiT degradation assay in NCIH929.11 cells; assay type: cell-based
T2 construct: CRISPR-edited to endogenously express HiBiT tagged IKZF1; host or cells: NCIH929.11

[1] = Crystallization by heat-cool DSC; assay type: physicochemical; conditions: Cycle 2: 30 to 180° C. at 10° C./min; 180 to −20° C. at 2° C./min; re-heat to 250° C. at 10° C./min
Description: Polymorphic behavior of Compound 1 free form was investigated by two different heat-cool DSC cycles using free form Pattern E. A Tzero pan and a Tzero hermetic lid with a pin hole were used for this experiment. Cycle 1: 30° C. to 180° C. at 10° C./min; 180° C. to −20° C. at 20° C./min; reheat to 250° C. at 10° C./min. Cycle 2: 30° C. to 180° C. at 10° C./min; 180° C. to −20° C. at 2° C./min; reheat to 250° C. at 10° C./min.

In the case of `COc1cc(-c2cn(C)c(=O)c(C)c2C)cc(OC)c1CN1CC[C@H](N2CCN(c3ccc(N[C@H]4CCC(=O)NC4=O)cc3F)CC2)C(F)(F)C1` [Compound 1, (S)-3-((4-(4-((S)-1-(2,6-dimethoxy-4-(1,4,5-trimethyl-6-oxo-1,6-dihydropyridin-3-yl)benzyl)-3,3-difluoropiperidin-4-yl)piperazin-1-yl)-3-fluorophenyl)amino)-piperidine-2,6-dione], the Kd (CRBN-DDB1; each occasion in duplicate, read-out: Kd, individual test occasion) is reported as 2.1 µM and 1.6 µM and 2.3 µM, the Kd (CRBN-DDB1; n=3, read-out: Kd (geometric mean), binding to CRBN-DDB1) is reported as 2 µM and the “% IKZF1 Remaining Relative to Vehicle Control at 6 hr, Mean” value (IKZF1; 0.101 nM) is reported as 100.8%. For the same compound, the “% IKZF1 Remaining Relative to Vehicle Control at 6 hr, Mean” value (IKZF1; 0.318 nM) was 106.4%, the “% IKZF1 Remaining Relative to Vehicle Control at 6 hr, Mean” value (IKZF1; 1.01 nM) was 102.9% and the “% IKZF1 Remaining Relative to Vehicle Control at 6 hr, Mean” value (IKZF1; 3.17 nM) was 100.4%. The “% IKZF1 Remaining Relative to Vehicle Control at 6 hr, Mean” value (IKZF1; 10.0 nM) was 98.5%, the “% IKZF1 Remaining Relative to Vehicle Control at 6 hr, Mean” value (IKZF1; 31.7 nM) was 96.0% and the “% IKZF1 Remaining Relative to Vehicle Control at 6 hr, Mean” value (IKZF1; 100 nM) was 95.9%. The “% IKZF1 Remaining Relative to Vehicle Control at 6 hr, Mean” value (IKZF1; 317 nM) was 91.5%, the “% IKZF1 Remaining Relative to Vehicle Control at 6 hr, Mean” value (IKZF1; 1000 nM) was 93.3% and the “% IKZF1 Remaining Relative to Vehicle Control at 6 hr, Mean” value (IKZF1; 3161 nM) was 80.8%. For the same compound, the “% IKZF1 Remaining Relative to Vehicle Control at 6 hr, Mean” value (IKZF1; 9990 nM) was 74.2%, the “degradation of IKZF1” value (IKZF1; 10 μM, 6 hours) was 25% and the Emax (IKZF1; IKZF1-HiBiT, NCIH929.11 cells, 6 hours, read-out: Mean Emax (%) ± SD) was 74.2 ± 8.2%. For the same compound, the “effect on degradation of IKZF1” value (IKZF1; concentrations up to 1 μM, 6 hours) was “no significant effect” and the “Thermal events: Glass transition” value [1] was “Glass transition: 135.7° C.; Delta Cp:”.
